Laboratory results reported in PubChem BioAssay AID256 (DTP/NCI, 2004).
Inconclusive results and toxic doses are left out. Rule for the calls: active = survival T/C of 150% or more; inactive = T/C below 125% in these data.

Test system: CD2F1 mice, L1210 leukemia ip, survival T/C
Assay: NCI In Vivo Anticancer Drug Screen. Data for tumor model L1210 Leukemia (intraperitoneal) in CD2F1 (CDF1) mice
Details: higher = longer survival
Summary of the method: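 Tumor-bearing mice (transplanted tumor) were split into treated and vehicle control groups, and the measured endpoint of each treated group was divided by that of its vehicle controls.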

[1] = endpoint: mean survival time, dose: 100.0 mg/kg/injection, schedule: Q01DX009 (ip), vehicle: saline with Tween-80
[2] = endpoint: mean survival time, dose: 100.0 mg/kg/injection, schedule: Q04DX003 (ip), vehicle: saline with Tween-80
[3] = endpoint: mean survival time, dose: 200.0 mg/kg/injection, schedule: Q01DX009 (ip), vehicle: saline with Tween-80
[4] = endpoint: mean survival time, dose: 200.0 mg/kg/injection, schedule: Q04DX003 (ip), vehicle: saline with Tween-80
[5] = endpoint: mean survival time, dose: 400.0 mg/kg/injection, schedule: Q01DX009 (ip), vehicle: saline with Tween-80
[6] = endpoint: mean survival time, dose: 100.0 mg/kg/injection, schedule: Q01DX001 (ip), vehicle: saline with Tween-80
[7] = endpoint: mean survival time, dose: 200.0 mg/kg/injection, schedule: Q01DX001 (ip), vehicle: saline with Tween-80
[8] = endpoint: mean survival time, dose: 400.0 mg/kg/injection, schedule: Q01DX001 (ip), vehicle: saline with Tween-80
[9] = endpoint: mean survival time, dose: 25.0 mg/kg/injection, schedule: Q01DX009 (ip), vehicle: Klucel (hydroxypropylcellulose) (HPC)
[10] = endpoint: mean survival time, dose: 50.0 mg/kg/injection, schedule: Q01DX009 (ip), vehicle: Klucel (hydroxypropylcellulose) (HPC)
[11] = endpoint: mean survival time, dose: 100.0 mg/kg/injection, schedule: Q01DX009 (ip), vehicle: Klucel (hydroxypropylcellulose) (HPC)

Measured: T/C

CC(=O)/C(C)=C\c1ccccc1
inactive: [1] 96 % of control | [2] 92 % of control | [3] 94 % of control | [4] 94 % of control | [5] 98 % of control | endpoint: mean survival time, dose: 400.0 mg/kg/injection, schedule: Q04DX003 (ip), vehicle: saline with Tween-80 94 % of control

CC(=O)CC(C)=O.CC(=O)CC(C)=O.CC(=O)CC(C)=O.CC(=O)CC(C)=O.[Hf]
inactive: [2] 86 % of control | [4] 94 % of control

C#CC(CC)OC(=O)c1cc([N+](=O)[O-])cc([N+](=O)[O-])c1 (stereo not drawn)
inactive: [6] 87 % of control | endpoint: mean survival time, dose: 100.0 mg/kg/injection, schedule: Q04DX002 (ip), vehicle: saline with Tween-80 93 % of control | [7] 94 % of control | endpoint: mean survival time, dose: 200.0 mg/kg/injection, schedule: Q04DX002 (ip), vehicle: saline with Tween-80 93 % of control | [8] 90 % of control | endpoint: mean survival time, dose: 400.0 mg/kg/injection, schedule: Q04DX002 (ip), vehicle: saline with Tween-80 93 % of control

O=C(CCl)Nc1ccc(Cl)cc1
inactive: [9] 97 % of control | [10] 96 % of control | endpoint: mean survival time, dose: 50.0 mg/kg/injection, schedule: Q04DX003 (ip), vehicle: Klucel (hydroxypropylcellulose) (HPC) 97 % of control | endpoint: mean survival time, dose: 100.0 mg/kg/injection, schedule: Q04DX003 (ip), vehicle: Klucel (hydroxypropylcellulose) (HPC) 100 % of control | [2] 106 % of control

N#Cc1c(F)c(F)c(NN)c(F)c1F
inactive: [2] 93 % of control | [4] 89 % of control

C(#Cc1ccccc1)/C=C/C(=C\c1ccccc1)c1ccccc1
inactive: [6] 92 % of control | [7] 89 % of control | [8] 87 % of control

Cc1ccc(S(=O)(=O)NNC(=O)C2(C)CC2(C)C(=O)O)cc1 (stereo not drawn)
inactive: [1] 96 % of control | [3] 96 % of control | [5] 100 % of control

OCCN=Cc1cccs1
inactive: [1] 101 % of control | [3] 95 % of control | [5] 110 % of control

O=S(=O)(Nc1ccc(Cc2ccc(NS(=O)(=O)c3ccccc3)cc2)cc1)c1ccccc1
inactive: [6] 88 % of control | [7] 90 % of control | [8] 88 % of control

COc1ccc(CNc2ccc([N+](=O)[O-])c3nonc23)cc1
inactive: [10] 94 % of control | [11] 86 % of control | endpoint: mean survival time, dose: 200.0 mg/kg/injection, schedule: Q01DX009 (ip), vehicle: Klucel (hydroxypropylcellulose) (HPC) 94 % of control

O=c1nc(NCCc2c[nH]c3ccccc23)ccn1C1OC(CO)C(O)C1O (stereo not drawn)
inactive: endpoint: median survival time, dose: 12.5 mg/kg/injection, schedule: Q01DX005 (ip), vehicle: distilled water + Tween-80 101 % of control | endpoint: median survival time, dose: 25.0 mg/kg/injection, schedule: Q01DX005 (ip), vehicle: distilled water + Tween-80 100 % of control | endpoint: median survival time, dose: 50.0 mg/kg/injection, schedule: Q01DX005 (ip), vehicle: distilled water + Tween-80 98 % of control | endpoint: median survival time, dose: 100.0 mg/kg/injection, schedule: Q01DX005 (ip), vehicle: distilled water + Tween-80 98 % of control | endpoint: median survival time, dose: 200.0 mg/kg/injection, schedule: Q01DX005 (ip), vehicle: distilled water + Tween-80 98 % of control

COC1=CC=C2C3Cc4ccc(OC)c(O)c4C2(C1)CN3C (stereo not drawn)
inactive: [9] 102 % of control | [10] 104 % of control | [11] 103 % of control

O=C1CSC(=S)N1/N=C/c1ccccc1
inactive: endpoint: mean survival time, dose: 100.0 mg/kg/injection, schedule: Q04DX002 (ip), vehicle: saline 103 % of control

CC(C)OP(=O)(OCCO)C(Cl)Cl (stereo not drawn)
inactive: endpoint: mean survival time, dose: 100.0 mg/kg/injection, schedule: Q01DX001 (ip), vehicle: saline 97 % of control | endpoint: mean survival time, dose: 200.0 mg/kg/injection, schedule: Q01DX001 (ip), vehicle: saline 94 % of control | endpoint: mean survival time, dose: 400.0 mg/kg/injection, schedule: Q01DX001 (ip), vehicle: saline 96 % of control
